Activity calls are given as the source filed them. The rule behind the calls is not given here.
Key:
MCF7 [1] = assay: Cell cycle arrest in human MCF7 cells assessed as reduction in CDK4 expression at 0.5 to 3 uM and measured after 24 hrs by Western blot analysis; format: functional, cell-based; details: dose 0.5-3 µM
[2] = target: T1, Estrogen receptor (Homo sapiens) (UniProt P03372); assay: Induction of ERalpha degradation in human MCF7 cells assessed as decrease in ERalpha protein expression at 0.5 to 3 uM for 24 hrs by Western blot analysis; format: cell-based; details: dose 0.5-3 µM
T1 sequence (whole entry): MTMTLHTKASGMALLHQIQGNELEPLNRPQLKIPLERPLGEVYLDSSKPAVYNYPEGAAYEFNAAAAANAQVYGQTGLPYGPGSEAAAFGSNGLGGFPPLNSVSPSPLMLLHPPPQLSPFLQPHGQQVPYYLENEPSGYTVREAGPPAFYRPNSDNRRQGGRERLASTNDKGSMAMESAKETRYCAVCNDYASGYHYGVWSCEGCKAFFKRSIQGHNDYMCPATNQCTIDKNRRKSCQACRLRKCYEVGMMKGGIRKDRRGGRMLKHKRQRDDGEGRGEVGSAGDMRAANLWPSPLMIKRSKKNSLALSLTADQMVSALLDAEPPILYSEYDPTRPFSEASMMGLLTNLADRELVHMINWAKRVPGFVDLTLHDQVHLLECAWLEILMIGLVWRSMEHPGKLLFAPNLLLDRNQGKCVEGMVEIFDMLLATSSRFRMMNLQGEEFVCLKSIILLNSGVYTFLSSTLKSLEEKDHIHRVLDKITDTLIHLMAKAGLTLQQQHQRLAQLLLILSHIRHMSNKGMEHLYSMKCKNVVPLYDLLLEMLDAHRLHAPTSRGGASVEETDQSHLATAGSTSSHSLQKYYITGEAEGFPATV

MCF7 [3] = assay: Induction of ROS generation in human MCF7 cells assessed as increase in intracellular ROS level at 2 uM measured after 24 hrs by DCFH-DA staining based flow cytometry method (reference value: 19.02%); format: functional
MCF7 [4] = assay: Effect on cell morphology in human MCF7 cells assessed as appearance of round cells at 0.5 to 2 uM measured after 24 hrs by Hoechst 33342 staining based fluorescence microscopy; format: functional; details: dose 0.5-2 µM
MCF7 [5] = assay: Induction of apoptosis in human MCF7 cells assessed as increase in cleaved caspase 3 level at 0.5 to 3 uM and measured after 24 hrs Western blot analysis relative to control; format: functional, cell-based; details: dose 0.5-3 µM
MCF7 [6] = assay: Induction of apoptosis in human MCF7 cells assessed as early apoptotic cells at 2 uM incubated for 24 hrs by annexin-V and PI staining based flow cytometry analysis relative to control; format: functional
[7] = Selectivity index, ratio of IC50 for antiproliferative activity against human MCF-10A cells to IC50 for antiproliferative activity against human MDA-MB-231 cells by MTT assay; format: toxicity, cell-based; details: MCF-10A cells versus MDA-MB-231 cells, read-out: Ratio IC50
MCF7 [8] = assay: Effect on cell morphology in human MCF7 cells assessed as appearance of apoptotic bodies at 0.5 to 2 uM measured after 24 hrs by Hoechst 33342 staining based fluorescence microscopy; format: functional; details: dose 0.5-2 µM
MCF7 [9] = assay: Induction of apoptosis in human MCF7 cells assessed as early apoptotic cells at 1 uM incubated for 24 hrs by annexin-V and PI staining based flow cytometry analysis relative to control; format: functional
MCF7 [10] = assay: Cell cycle arrest in human MCF7 cells assessed as accumulation at G1 phase at 1 uM measured after 24 hrs by propidium iodide staining based flow cytometry (reference value: 73.45 %); format: functional
MCF7 [11] = assay: Effect on cell morphology in human MCF7 cells assessed as chromatin shrinkage at 0.5 to 2 uM measured after 24 hrs by Hoechst 33342 staining based fluorescence microscopy; format: functional; details: dose 0.5-2 µM
MCF7 [12] = assay: Inhibition of colony formation in human MCF7 cells at 0.5 uM measured after 9 days by crystal violet staining based assay relative to control; format: functional, cell-based; details: time 9.0 day
[13] = Metabolic stability in rat plasma assessed as parent compound remaining incubated for 60 mins in presence of NADPH by UPLC-MS analysis; format: ADME, cell-free; details: read-out: Stability
MCF7 [14] = assay: Induction of apoptosis in human MCF7 cells assessed as increase in cleaved caspase 9 level at 0.5 to 3 uM and measured after 24 hrs Western blot analysis relative to control; format: functional, cell-based; details: dose 0.5-3 µM
MCF7 [15] = assay: Induction of ROS generation in human MCF7 cells assessed as increase in intracellular ROS level at 0.5 to 2 uM and measured after 24 hrs by DCFH-DA staining based flow cytometry method; format: functional, cell-based; details: dose 0.5-2 µM
MCF7 [16] = assay: Antiproliferative activity against human MCF7/ADR cells assessed as reduction in cell viability after 48 hrs by MTT assay; format: functional, cell-based; details: MCF7, 48 h
[17] = target: T2, Progesterone receptor (Homo sapiens) (UniProt P06401); assay: Induction of progesterone receptor degradation in human MCF7 cells assessed as decrease in PR level at 1 uM incubated for 24 hrs by Western blot analysis; format: cell-based
T2 sequence (whole entry): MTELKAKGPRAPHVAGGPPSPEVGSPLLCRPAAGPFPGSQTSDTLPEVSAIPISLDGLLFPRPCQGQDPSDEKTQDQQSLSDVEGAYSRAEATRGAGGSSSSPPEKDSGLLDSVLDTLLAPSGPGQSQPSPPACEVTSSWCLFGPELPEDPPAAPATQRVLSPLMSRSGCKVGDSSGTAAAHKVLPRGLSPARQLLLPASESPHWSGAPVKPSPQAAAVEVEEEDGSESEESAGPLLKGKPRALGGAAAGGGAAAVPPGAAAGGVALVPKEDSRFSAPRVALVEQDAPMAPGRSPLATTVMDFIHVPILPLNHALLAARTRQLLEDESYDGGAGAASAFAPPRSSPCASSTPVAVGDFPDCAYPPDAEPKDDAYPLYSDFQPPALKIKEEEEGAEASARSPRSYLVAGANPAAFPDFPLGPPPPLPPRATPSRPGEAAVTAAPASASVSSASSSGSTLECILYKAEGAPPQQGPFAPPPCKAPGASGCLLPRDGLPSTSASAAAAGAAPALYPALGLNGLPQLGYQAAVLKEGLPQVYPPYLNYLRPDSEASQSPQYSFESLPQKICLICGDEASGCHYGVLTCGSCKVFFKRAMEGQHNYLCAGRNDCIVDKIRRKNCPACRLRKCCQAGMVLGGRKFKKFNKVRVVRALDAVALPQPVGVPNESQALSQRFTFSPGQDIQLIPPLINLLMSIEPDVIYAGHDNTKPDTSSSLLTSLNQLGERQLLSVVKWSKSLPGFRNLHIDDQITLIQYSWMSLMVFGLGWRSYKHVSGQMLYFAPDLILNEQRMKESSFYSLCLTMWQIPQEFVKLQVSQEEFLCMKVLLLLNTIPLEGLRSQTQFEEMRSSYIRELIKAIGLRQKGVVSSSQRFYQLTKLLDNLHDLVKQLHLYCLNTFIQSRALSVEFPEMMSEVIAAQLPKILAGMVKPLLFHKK

[18] = Antiproliferative activity against human MCF-10A cells assessed as reduction in cell viability after 48 hrs by MTT assay; format: toxicity, cell-based
MCF7 [19] = assay: Induction of apoptosis in human MCF7 cells assessed as increase in cytochrome C protein level at 0.5 to 3 uM and measured after 24 hrs Western blot analysis relative to control; format: functional, cell-based; details: dose 0.5-3 µM

CC1=CC(=O)[C@H]2/C(C=O)=C\C[C@H]3[C@@H]([C@@H](C)/C=C\C=C/C(=O)OCCOCCOCCOC(=O)CC45CC6CC(CC(C6)C4)C5)CC[C@]3(C)C[C@H]12
Activity (MCF7 [1]): Dose-Dependent Effect | Activity [2]: Dose-Dependent Effect | Activity (MCF7 [3]): 58.14% | Activity (MCF7 [4]): Active | Activity (MCF7 [5]): Dose-Dependent Effect | Activity (MCF7 [6]): 32.3% | selectivity ratio [7]: 5.34 | Activity (MCF7 [8]): Active | Activity (MCF7 [9]): 14.1% | Activity (MCF7 [10]): 78.07% | Activity (MCF7 [11]): Active | inhibition (MCF7 [12]): Active | remaining at 1 h [13]: 81% | Activity (MCF7 [14]): Dose-Dependent Effect | Activity (MCF7 [15]): Dose-Dependent Effect | IC50 (MCF7 [16]): 480 nM | Activity [17]: inactive | IC50 at 48 h [18]: 2190 nM | Activity (MCF7 [19]): Active

Source: ChEMBL document CHEMBL5042519, “Design and synthesis of marine sesterterpene analogues as novel estrogen receptor α degraders for breast cancer treatment” (Eur J Med Chem, 2022)
